Source: article PMC12766724, “Synthesis, Anthelmintic Activity, and Mechanism of Action of 5‑Aryl‑1H‑indoles” (Journal of Agricultural and Food Chemistry, 2025)
≈ marks a conversion by molar mass, not a printed value.

Columns and labels:
[1] = test system: Meloidogyne incognita; parameters: method as in not printed (reference number lost in b5); settings: ref not printed (reference number lost in b5); cited from earlier work
[2] = Visual inspection of DMSO stock solutions; assay type: physicochemical; settings: 50 mM in DMSO, stored at −20 °C
Experimental: For bioassays, all compounds were dissolved in dimethyl sulfoxide (DMSO) to prepare 50 mM stock solutions. Stock solutions were stored at −20 °C and diluted in water or the appropriate media for each bioassay to achieve the final concentrations indicated below. Solubility was evaluated by visual inspection of stock solutions (assessing clarity or cloudiness) and by microscopic examination of media to detect potential crystal formation. The final DMSO concentrations in the bioassays were kept at levels that had no detectable impact on test organisms, as determined by comparison with water-treated controls (0.1% for cell cultures, 0.2% for nematodes, and 0.3% for Arabidopsis thaliana Col-0).

[3] = test system: Skin fibroblasts (BJ); test: Resazurin assay, 3-day treatment; assay type: cell-based, human; settings: BJ
Experimental: Skin fibroblasts (BJ) were obtained from the American Type Culture Collection (ATCC, Manassas, VA), while human keratinocytes (HaCaT) were sourced from the German Cancer Research Center in Heidelberg, Germany. Cells were cultured in a standard DMEM medium from Sigma-Aldrich, supplemented with 10% fetal bovine serum, 2 mM glutamine, 100 U/mL penicillin, and 100 μg/mL streptomycin. Cultures were maintained under standard conditions (37 °C, 5% CO2, humidified atmosphere) and subcultured two to three times per week. We assessed the effect of 3-day compound treatments on cell viability using a resazurin reduction assay measuring mitochondrial activity. Approximately 5,000 cells in 80 μL of culture medium were seeded into the wells of a 96-well plate. Twenty-four hours later, 20 μL of 5-fold concentrated test compound solutions was added and tested across three concentrations prepared through 2-fold serial dilutions. The highest final concentration was 40 μM. After 72 h, we added an 11-fold concentrated resazurin solution to the wells, achieving a final concentration of 0.0125 μM. Fluorescence (ex = 570 nm, em = 610 nm) was measured after 3 h of incubation. […]

[4] = test system: C. elegans N2 wild-type; test: Chitinase assay (reproductive capacity); assay type: in vivo, Caenorhabditis elegans; settings: Caenorhabditis elegans
Experimental: The effect of compounds on C. elegans was evaluated using the Chitinase assay as we described previously.
After exposing L1 larvae to the compounds for 4 days, we observed the populations under a microscope and measured the Chitinase activity. The larvae produce the enzyme while hatching, and its activity is indicative of the reproductive capacity of the worms. Populations that fail to reproduce due to acute or reproductive toxicity or developmental abnormalities are detected.

[5] = test system: Arabidopsis thaliana Col-0; test: Germination rate and phytotoxicity; assay type: in vivo; settings: for average fraction of germinated seeds: 5 DPS; for main root length / plant weight: 10 DPS
Experimental: Wild-type A. thaliana (Col-0 ecotype) seeds were sterilized with 70% EtOH with 0.1% Tween-20 solution (2 × 1 mL) for 10 min, rinsed with 96% EtOH (1 × 1 mL) for 10 min, and kept in the fridge (4 °C in the dark). Seeds were sown on a sterile 1/2 MS medium supplemented with 0.3% DMSO as a mock and test compounds at 5, 10, 50, and 100 μM concentrations in 0.3% DMSO. Plates were kept in long-day light conditions (22 °C/20 °C, 16 h light/8 h dark, 100 μmol m^–2 s^–1). After 5 days, the germination rate was evaluated. After an additional 5 days, primary root growth was measured with ImageJ software (https://imagej.nih.gov/ij/), and seedlings were weighted.

[6] = test system: Heterodera schachtii second-stage juveniles (J2); test: Motility on WMicrotracker ONE; assay type: in vivo
Experimental: H. schachtii was maintained on mustard (Sinapsis alba cv. Albatros) roots grown in vitro on modified KNOP medium according to the previously published protocols. ,
(§1) The effect of compounds on motility of H. contortus, D. destructor, and H. schachtii was evaluated using the WMicrotracker ONE platform according to previously published protocols. ,
(§2) The instrument evaluates the activity of small animals by counting how many times infrared light microbeams passing through the wells of a microtiter plate are interrupted. In age-unsynchronized populations of D. destructor, we observed reduced motility of worm populations treated with the halogenated derivatives i-19, i-20, and i-21 (Figures A, S2.1A, S2.2A and Table S2.1). […] The decreases in mean activity counts after 72 h of treatment at 100 μM were 85% and 97%, respectively.

[7] = test system: human keratinocytes (HaCaT); test: Resazurin assay, 3-day treatment; assay type: cell-based
Experimental: Skin fibroblasts (BJ) were obtained from the American Type Culture Collection (ATCC, Manassas, VA), while human keratinocytes (HaCaT) were sourced from the German Cancer Research Center in Heidelberg, Germany. Cells were cultured in a standard DMEM medium from Sigma-Aldrich, supplemented with 10% fetal bovine serum, 2 mM glutamine, 100 U/mL penicillin, and 100 μg/mL streptomycin. Cultures were maintained under standard conditions (37 °C, 5% CO2, humidified atmosphere) and subcultured two to three times per week. We assessed the effect of 3-day compound treatments on cell viability using a resazurin reduction assay measuring mitochondrial activity. Approximately 5,000 cells in 80 μL of culture medium were seeded into the wells of a 96-well plate. Twenty-four hours later, 20 μL of 5-fold concentrated test compound solutions was added and tested across three concentrations prepared through 2-fold serial dilutions. The highest final concentration was 40 μM. After 72 h, we added an 11-fold concentrated resazurin solution to the wells, achieving a final concentration of 0.0125 μM. Fluorescence (ex = 570 nm, em = 610 nm) was measured after 3 h of incubation.
The disubstituted derivatives i-25 and i-27 were the most toxic in the set, causing around a 50% decrease in viability of HaCaT cells at 40 μM.

[8] = test system: age unsynchronized Ditylenchus destructor; test: Motility on WMicrotracker ONE; assay type: in vivo
Experimental: Populations of D. destructor, kindly provided by Central Institute for Supervising and Testing in Agriculture, the Ministry of Agriculture of the Czech Republic, were maintained according to the protocol previously described here.
as §1, §2

[9] = 10 µM group, initial (prior to the treatment)
[10] = 50 µM group, initial (prior to the treatment)
[11] = 100 µM group, initial (prior to the treatment)

In the case of O=C(O)Cc1c[nH]c2ccccc12 [Indole-3-acetic acid], the LC50 [1] is listed as 117 µg/mL (≈ 668 µM).

For CC(C)c1ccc(-c2ccc3[nH]ccc3c2)cc1 [i-17], the “stability of stock solutions” value [2] was “precipitation of stock solutions after a single freeze–thaw cycle”, the “Average viability (signal intensity relative to control)” value ([3]; 10 µM) was 0.9 ± 0.01 and the “Average viability (signal intensity relative to control)” value ([3]; 20 µM) was 0.92 ± 0.05. The “Average viability (signal intensity relative to control)” value ([3]; 40 µM) was 0.82 ± 0.07, the IC50 [4] was 7.6 ± 2.3 µM and the “average fraction of germinated seeds” value ([5]; 5 µM) was 0.95. For the same compound, the main root length ([5]; 5 µM) was 38.83 mm, the plant weight ([5]; 5 µM) was 35.01 mg and the “average fraction of germinated seeds” value ([5]; 10 µM) was 0.98. For the same compound, the main root length ([5]; 10 µM) was 37.53 mm, the plant weight ([5]; 10 µM) was 28.28 mg and the “average fraction of germinated seeds” value ([5]; 50 µM) was 0.89. The main root length ([5]; 50 µM) was 31.19 mm, the plant weight ([5]; 50 µM) was 26.18 mg and the average activity counts [6, 9] was 178. The average activity counts ([6]; 10 µM, 48 h) was 160, the average activity counts ([6]; 10 µM, 72 h) was 139 and the average activity counts [6, 10] was 181. The average activity counts ([6]; 50 µM, 48 h) was 158, the average activity counts ([6]; 50 µM, 72 h) was 158 and the average activity counts [6, 11] was 197. The average activity counts ([6]; 100 µM, 48 h) was 158, the average activity counts ([6]; 100 µM, 72 h) was 122 and the “Average viability (signal intensity relative to control)” value ([7]; 10 µM) was 0.98 ± 0.01. For the same compound, the “Average viability (signal intensity relative to control)” value ([7]; 20 µM) was 0.99 ± 0.01, the “Average viability (signal intensity relative to control)” value ([7]; 40 µM) was 0.87 ± 0.04 and the average activity counts [8, 9] was 228. The average activity counts ([8]; 10 µM, 48 h) was 211, the average activity counts ([8]; 10 µM, 72 h) was 212 and the average activity counts [8, 10] was 228. The average activity counts ([8]; 50 µM, 48 h) was 223, the average activity counts ([8]; 50 µM, 72 h) was 224 and the average activity counts [8, 11] was 245. It also gave an average activity counts ([8]; 100 µM, 48 h) of 206 and an average activity counts ([8]; 100 µM, 72 h) of 212.
